Where a name gives a salt, the structure may show the parent alone.
Legend:
[1] = cited patent; cited from earlier work
[2] = literature pilot study; cited from earlier work

## Cn1cc(C(=O)c2ccc(Cl)cc2)cc1C(=O)CN1CCCCC1 [Example 12, 1-[4-(4-Chlorobenzoyl)-1-methyl-1H-pyrrol-2-yl]-2-(1-piperidinyl)-ethanone]
other
  melting point: 129 to 130 °C

## CC1(C)O[C@@H]2[C@@H](CO[C@@]3(COS(N)(=O)=O)OC(C)(C)O[C@@H]23)O1 [topiramate]
[1]
  efficacy in an animal model of neuropathic pain: evidence of pharmacological activity

## Cn1cc(C(=O)CN)cc1C(=O)c1ccc(Cl)cc1 (as salt: hydrochloride)
other
  melting point: 290 °C (dec.)

## Cn1cc(C(=O)c2ccc(Cl)cc2)cc1C(=O)CN1CCCC1 (as salt: hydrochloride)
other
  melting point: 265 to 267 °C

## Cn1cc(C(=O)c2ccc(Cl)cc2)cc1C(=O)CN1CCOCC1 (as salt: hydrochloride) [13-1, 1-[4-(4-Chlorobenzoyl)-1-methyl-1H-pyrrol-2-yl]-2-(1-morpholino)-ethanone hydrochloride]
other
  melting point: 264 to 267 °C

## NCC1(CC(=O)O)CCCCC1 [Gabapentin]
[2]
  effect on brush-induced and cold allodynia: significantly effective
  effect on detection and pain thresholds to static mechanical and hot stimuli: no effect
  reducing paroxysmal pain: particularly effective
  relief of ongoing spontaneous pain: moderate and statistically significant relief
